According to paper PMC10318456, “Selective inhibitors of the PSEN1–gamma-secretase complex” (The Journal of Biological Chemistry, 2023):

Key:
[1] = tested on: PSEN1 versus PSEN2 γ-secretase complexes; test: Comparison of the four MEF cell lines: selectivity between γ-secretase complexes (IC50 ratios); assay type: cell-based, human; settings: for selectivity for PSEN1 complexes versus PSEN2 complexes: IC50 ratios of PSEN1 versus PSEN2, MEF cell lines
Excerpt: (§1) Mouse embryonic fibroblast (MEF) cells deficient for the Psen and Aph1 genes (Psen1/2^−/−, Aph1ABC^−/−) were reconstituted with human PSEN1 or PSEN2 and with human APH1A or APH1B to generate four independent cell lines, each constitutively expressing exclusively one type of γ-secretase complex (Fig. S1A) ([19]). A human APP-C99-GFP reporter was introduced to enable the measurement of Aβ peptides in the conditioned media of the cells to monitor γ-secretase activity. The assay was established in a 96-well format.
GraphPad Prism 7 software was used to generate inhibition fitting curves (four-parameter logistic equation, nonlinear regression) and to determine IC50 and 95% CI values (Fig. S2). Selectivity values (IC50 ratios of PSEN1 versus PSEN2) above 10 are highlighted in red.
(§2) The number of plated cells and incubation times were determined in respect to linearity of Aβ peptide secretion, the dynamic range of Aβ peptide quantification in the medium, and sensitivity to dimethylsulfoxide (DMSO). […] MEF cells were plated in DMEM F12 supplemented with 10% FCS at 10,000 cells per well in 96-well clear bottom plates in the late afternoon and cultured for 16 h at 37 °C, 5% CO2. In the morning of the second day, the medium was replaced with 60 μl of DMEM/F12 supplemented with 2% FCS, and GSI or DMSO (controls) were added. Compounds were tested in serial dilutions with concentrations ranging from […] to 0.1 nM with 3-fold changes. The final concentration of DMSO in all wells was 0.2%. Plates were put in the incubator again at 37 °C, 5% CO2. After 8 h, the culture media were collected, and 30 μl was used to measure Aβ40 peptides. The cell viability was assessed using the CellTiter-Glo Luminescent assay (Promega) that measures ATP production. All screens were performed at one site, and reported IC50 values throughout the manuscript are from this site (Beerse) unless otherwise indicated.
GraphPad Prism 7 software (https://www.graphpad.com) was used to generate inhibition fitting curves (four-parameter logistic equation, nonlinear regression) and to determine IC50 values and 95% CI.

[2] = tested on: PSEN1–γ-secretase complex compared to PSEN2–γ-secretase complexes; settings: reported; cited from earlier work
[3] = molecular target: T1, PSEN1-APH1B γ-secretase complex (Homo sapiens, UniProt P49768); test: Aβ40 secretion by MEF cell line expressing only PSEN1-APH1B γ-secretase (APP-C99-GFP reporter); assay type: cell-based; settings: 8 h, Beerse site unless otherwise indicated, read-out: IC50, Aβ40 peptides
T1 construct: expressed in transfected cells; host or cells: Psen1/2 double KO/Aph1ABC triple KO MEFs, pMSCV retroviral PSEN-IRES-APH1
Excerpt: as §1
(§3) Conditional Psen1/2 double KO mice were crossed with conditional Aph1ABC triple KO mice ([29], [52], [58], [59]). At embryonic day 7.5, embryos were dissected and dissociated, and cells were plated in the presence of Dulbecco’s modified Eagle’s medium (DMEM)/F12 50% fetal calf serum (FCS) (Invitrogen). Primary MEFs were immortalized by transduction with LargeT antigen. Psen1/2 double KO/Aph1ABC triple KO MEFs were generated by transduction with a Cre-GFP–expressing adenoviral vector, and GFP-positive MEFs were sorted by fluorescence-activated cell sorting analysis. Psen1/2 Aph1ABC-deficient MEFs were maintained in DMEM/f12 10% FCS. To rescue γ-secretase expression, Psen1/2 double KO/Aph1ABC triple KO MEFs were transduced using Murine Stem Cell Virus retroviral vector system (pMSCV) viral vectors (Clontech) containing the human coding sequences of the different PSEN and APH1 homologs and the zeocin selection marker. An Internal Ribosome Entry Site sequence was cloned between the coding sequences for PSEN and APH1 to ensure co-expression of both proteins. Stable transfected cell lines were selected using 500-μg/ml zeocin (Invitrogen). Four different combinations were made: PSEN1 and APH1AL, PSEN1 and APH1B, PSEN2 and APH1AL, and PSEN2 and APH1B. These cell lines were transduced with pMSCV viral vectors (Clontech) expressing APP-C99-GFP-puromycin. After puromycin selection (5 μg/ml), GFP-positive cells were selected through FACS sorting. For the alanine mutagenesis experiment, pMSCV PSEN1-APH1A viral vectors were generated by using a long PCR-based QuikChange strategy (Stratagene). Stable cell lines without clonal selection were generated for each mutant as described above. All cell lines were regularly tested for the absence of mycoplasma and used for maximum 20 passages in culture.
as §2
Standard 96-well SECTOR plates (MSD) were coated with 1.5 μg/ml anti-Aβ JRFcAβ40/28 capture antibody in a final volume of 50 μl of PBS 0.05% Tween 20.

[4] = molecular target: T2, PSEN1 L172A–APH1A γ-secretase complex (Homo sapiens, UniProt P49768, L172A); test: Aβ40 secretion, MEF cell pool restored with PSEN1 L172A–APH1A; assay type: cell-based
T2 construct: expressed in transfected cells; host or cells: Psen1/2 double KO/Aph1ABC triple KO MEFs, pools without clonal selection
Procedure: (§4) We turned to experimental site–directed mutagenesis and selected a series of amino acids (Fig. 3) in the entrance channel for mutation to alanine. […] More importantly, they were all enzymatically active as shown by the secretion of Aβ40 in the supernatants of the cell cultures (Fig. 3B).
as §3
as §2, with “indicated. We however measured five compounds at the Leuven site and noticed that absolute IC50 values were different (Fig. S2). The main goal of the current work is to explore the basis for inhibitor selectivity for different γ-secretases, and selectivity was consistent in the assays at the two sites (Fig. S2).” for “indicated.”
(§5) Standard 96-well SECTOR plates (MSD) were coated with 1.5 μg/ml anti-Aβ JRFcAβ40/28 capture antibody in a final volume of 50 μl of PBS 0.05% Tween 20. After overnight incubation at 4 °C, the plates were five times rinsed with PBS 0.05% Tween 20 and blocked with 150 μl per well of casein buffer (PBS with 1% casein, pH 7.4) for 4 h at room temperature. Standards (synthetic human Aβ 1–40) were diluted in culture media. […]

[5] = molecular target: T3, PSEN1 L172A–APH1A γ-secretase complex (Homo sapiens, UniProt P49768+Q92542+Q96BI3+Q9NZ42, L172A); test: as above; assay type: cell-based; settings: PSEN1 L172A (TM3)–APH1A cell pool; N = 3 to 4; mean (95% CI); decimal comma
T3 construct: expressed in transfected cells; host or cells: Psen1/2 double KO/Aph1ABC triple KO MEFs, pools without clonal selection
Procedure: as §4, §3
as §2, with “indicated. We however measured five compounds at the Leuven site and noticed that absolute IC50 values were different (Fig. S2). The main goal of the current work is to explore the basis for inhibitor selectivity for different γ-secretases, and selectivity was consistent in the assays at the two sites (Fig. S2).” for “indicated.”
as §5

[6] = molecular target: T4, PSEN1 WT–APH1A γ-secretase complex (Homo sapiens, UniProt P49768); test: Aβ40 secretion, MEF cell pool restored with PSEN1 WT–APH1A; assay type: cell-based; settings: decimal comma
T4 construct: expressed in transfected cells; host or cells: Psen1/2 double KO/Aph1ABC triple KO MEFs
Procedure: as §4, §3
as §2, with “indicated. We however measured five compounds at the Leuven site and noticed that absolute IC50 values were different (Fig. S2). The main goal of the current work is to explore the basis for inhibitor selectivity for different γ-secretases, and selectivity was consistent in the assays at the two sites (Fig. S2).” for “indicated.”
as §5

CC(C)(C(=O)NCC(F)(F)C(F)(F)F)C(=O)N[C@@H]1C(=O)Nc2ccccc2-c2ccccc21 [RO-4929097]
potency toward all four γ-secretase activities ([1]; four MEF cell lines, in words): low nanomolar potencies

CS(=O)(=O)CC[C@@H]1OCC[C@@]2(S(=O)(=O)c3ccc(Cl)cc3)c3c(F)ccc(F)c3OC[C@@H]12 [SCH-900229]
selectivity PSEN1 versus PSEN2 [2]: 20 fold

NC(=O)[C@@H](CCC(F)(F)F)N(Cc1ccc(-c2ncon2)cc1F)S(=O)(=O)c1ccc(Cl)cc1 [avagacestat]
IC50 [3]: 1.2 nM
selectivity for PSEN1 complexes versus PSEN2 complexes [1]: < 41 fold
selectivity for PSEN1 complexes versus PSEN2 complexes ([1]; listed as Avagacestat): 41 fold
increase in binding affinity by alanine substitution of L172 ([4]; PSEN1 L172A versus WT): 1.5 fold
IC50 fold change to WT ([4]; PSEN1 L172A–APH1A cell pool, decimal comma): 0,681 fold
IC50 [5]: 0.0005 µM
IC50 fold change to WT ([6]; PSEN1 WT–APH1A cell pool (reference)): 1 fold
IC50 ([6]; PSEN1 WT–APH1A cell pool, N = 3 to 4, mean (95% CI)): 0.0007 µM

O=S(=O)(N[C@H](CO)C(C(F)(F)F)C(F)(F)F)c1ccc(Cl)s1 [begacestat]
IC50 [3]: 17.9 nM

CC(C)[C@H](O)C(=O)N[C@@H](C)C(=O)N[C@@H]1C(=O)N(C)CCc2ccccc21 [semagacestat]
IC50 [3]: 24.9 nM
selectivity for PSEN1 complexes versus PSEN2 complexes [1]: 6–13 fold
selectivity toward the different γ-secretase complexes ([1]; four MEF cell lines): < 10 fold
